Test results as given in patent US20250144099A1, “INK4 TUMOR SUPPRESSOR PROTEINS MEDIATE RESISTANCE TO CDK4/6 KINASE INHIBITORS” (MEMORIAL SLOAN-KETTERING CANCER CENTER, priority 2021, published 2025).
Entries after “also recorded” stand apart in the source; their conditions may differ.

Legend:
[1] = tested on: phosphorylation of Rb; experiment: Immunoblotting of Rb phosphorylation in cells; format: cell-based, human; details: FAT1 loss / CDK6-high CDK4/6i-resistant MCF7 cells
Experimental: (§1) Cell lysates were collected in RIPA buffer (Thermo Fisher Scientific) supplemented with protease and phosphatase inhibitors (Pierce). Protein concentration was quantified by using the BCA kit (Fisher Scientific). […] of protein lysates were loaded onto 4-12% SDS-PAGE gels (Invitrogen) for electrophoresis and transferred onto nitrocellular membranes. Blots were blocked with Intercept™ (TBS) Blocking Buffer (LI-COR Bioscience #927-60001) and incubated with primary antibody at 4° C. overnight. Secondary antibodies conjugated with fluorescence (LI-COR Bioscience #926-68071 and #926-32210) were incubated for 1 h at room temperature and blots were scanned by Odyssey Clx Imaging System from LI-COR Bioscience.

[2] = tested on: MCF-7 CDK6-high cells (FAT1 loss); experiment: Cell viability assay (Resazurin); format: cell-based, human; details: day 7
Experimental: (§2) Cell viability was measured by Resazurin (R&D Systems, Minneapolis, MN, USA) as described previously (51). Briefly, 1,500 cells were seeded in a 96-well plate and allowed to recover overnight. Cells were treated with drugs at day 0. Resazurin was added to the cells 4 hours prior to the measurements on day 3, day 5 and day 7. Fluorescent intensity was measured using a microplate reader (SpectraMax M5, Molecular Devices, Sunnyvale, CA, USA). IC50 was calculated by GraphPad Prism 7.0 using a sigmoidal regression model.

[3] = tested on: MCF-7 parental cells; experiment: Cell viability assay (Resazurin); format: cell-based, human; details: day 7
Experimental: as §2

[4] = Pharmacokinetic study; format: in vivo, C57BL/6 male mice
Experimental: Pharmacokinetic study. C57BL/6 male mice were dosed with BSJ-05-017 solution formulation (i.p., 5/95 DMSO/10% captisol, dose 25 mg/kg) and BSJ-03-096 solution formulation (p.o., 5/95 DMSO/10%, dose 10 mg/kg). Blood samples were collected at 0.08, 0.25, 0.5, 1, 2, 4, 6, 8 and 24 hr. The blood samples were collected from sets of three mice at each time point in microcentrifuge tubes containing K2EDTA as an anticoagulant. Plasma samples were separated by centrifugation and stored below −70° C. until bioanalysis. All samples were processed for analysis by precipitation using acetonitrile and analyzed with a partially validated LC/MS/MS method (LLOQ −1.22 ng/mL for IV and PO, LLOQ −5.02 ng/mL for IP). Pharmacokinetic parameters were calculated using the noncompartmental analysis tool of WinNonlin Enterprise software (Version 6.3).

[5] = tested on: prostate cancer cell 22RV1; experiment: Colony formation assay; format: cell-based; details: 21 days treatment
[6] = tested on: shPTEN (PTEN loss) xenografts; experiment: Efficacy study, cell-derived xenograft; format: in vivo, NSG mice; details: BSJ-05-017 50 mg/kg i.p., BSJ-03-096 50 mg/kg p.o., 25-35 days
Experimental: (§3) Efficacy study. NOD.Cg-Prkdc Il2rg<tm1Wjl>/SzJ (NSG) mice were obtained from the Jackson Laboratory (Stock #: 005557). Each mouse was injected with MCF7 parental, CDK6-ovexpressing or PTEN loss cells subcutaneously 1 week after the implantation of estradiol pellets (25 mg). […] Tumor volumes were recorded every 3-4 days. Mice were sacrificed if tumors reached 1000 mm^3 or at the end of the experiment. Tumors were collected and processed as described above.

[7] = tested on: CDK6-overexpressing xenografts; experiment: Efficacy study, cell-derived xenograft; format: in vivo, NSG mice; details: BSJ-05-017 50 mg/kg i.p., BSJ-03-096 50 mg/kg p.o., 25-35 days
Experimental: as §3

[8] = tested on: MCF7 parental cell-derived xenografts; experiment: Efficacy study, cell-derived xenograft; format: in vivo, NSG mice; details: ribociclib 25 mg/kg p.o., BSJ-05-017 50 mg/kg i.p., BSJ-03-096 50 mg/kg p.o., 25-35 days
Experimental: as §3

[9] = biological target: CDK6 (Homo sapiens, UniProt Q00534); experiment: Immunoblotting of CDK6 degradation in cells; format: cell-based; design: MCF7 cells that lost FAT1 expression and with high CDK6 expression; endogenous in cells; host or cells: MCF-7 FAT1 loss cells (also MCF-7 parental)
Chain of CDK6 (Q00534 whole entry): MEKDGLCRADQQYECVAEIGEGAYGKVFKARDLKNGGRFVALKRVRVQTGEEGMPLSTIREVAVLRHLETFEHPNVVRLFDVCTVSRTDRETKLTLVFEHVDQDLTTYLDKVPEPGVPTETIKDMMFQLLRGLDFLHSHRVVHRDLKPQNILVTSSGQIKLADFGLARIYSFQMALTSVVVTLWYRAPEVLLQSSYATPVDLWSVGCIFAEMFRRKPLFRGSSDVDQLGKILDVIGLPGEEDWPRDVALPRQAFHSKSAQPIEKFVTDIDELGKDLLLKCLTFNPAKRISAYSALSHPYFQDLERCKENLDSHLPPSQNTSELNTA
Experimental: as §1

[10] = biological target: T1, CDK4 (Homo sapiens, UniProt P11802); experiment: Immunoblotting of CDK4 degradation in cells; format: cell-based
T1 construct: CDK4 and CDK6 were immunoprecipitated from isogenic drug sensitive (MCF7 parental cells with low CDK6); endogenous in cells; host or cells: MCF-7 parental and MCF-7 FAT1 CRISPR knockout (CDK6-high) cells
T1 sequence (P11802 whole entry): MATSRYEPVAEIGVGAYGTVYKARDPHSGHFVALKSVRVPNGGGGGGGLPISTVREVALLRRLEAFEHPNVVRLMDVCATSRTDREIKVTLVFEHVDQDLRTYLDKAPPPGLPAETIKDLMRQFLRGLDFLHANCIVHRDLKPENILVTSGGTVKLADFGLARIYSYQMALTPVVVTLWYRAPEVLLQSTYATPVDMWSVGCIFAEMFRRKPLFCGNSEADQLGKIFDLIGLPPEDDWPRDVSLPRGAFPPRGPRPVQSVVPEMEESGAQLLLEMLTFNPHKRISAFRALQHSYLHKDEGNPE
T1 sequence (P24385 whole entry partner): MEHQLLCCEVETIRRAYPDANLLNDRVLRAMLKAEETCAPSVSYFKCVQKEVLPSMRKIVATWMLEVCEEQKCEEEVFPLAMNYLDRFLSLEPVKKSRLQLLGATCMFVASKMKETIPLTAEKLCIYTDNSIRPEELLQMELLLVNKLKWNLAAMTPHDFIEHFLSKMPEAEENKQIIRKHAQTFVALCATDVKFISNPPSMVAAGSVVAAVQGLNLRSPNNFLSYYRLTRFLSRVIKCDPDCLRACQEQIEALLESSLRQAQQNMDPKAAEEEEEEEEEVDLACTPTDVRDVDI
Experimental: as §1

[11] = tested on: ~900 cell lines; experiment: PRISM cell line screening; format: cell-based; details: 8 pt. dose, 5 days
Experimental: Cell Lines. The current PRISM cell set consists of 931 cell lines representing more than 45 lineages including both adherent and suspension/hematopoietic cell lines. These cell lines largely overlap with and reflect the diversity of the Cancer Cell Line Encyclopedia (CCLE) cell lines (see https://portals.broadinstitute.org/ccle). Cell lines were grown in RPMI 10% FBS without phenol red for adherent lines and RPMI 20% FBS without phenol red for suspension lines. Parental cell lines were stably infected with a unique 24-nucleotide DNA barcode via lentiviral transduction and blasticidin selection. After selection, barcoded cell lines were expanded and QCed (mycoplasma contamination test, a SNP test for confirming cell line identity, and barcode ID confirmation). Passing barcoded lines were then pooled (20-25 cell lines per pool) based on doubling time and frozen in assay-ready vials.
PRISM Screening. […] These assay ready plates were then seeded with the thawed cell line pools. […]
Barcode Amplification and Detection. Each cell line's unique barcode is located at the end of the blasticidin resistance gene and gets expressed as mRNA. […] Finally, Luminex beads that recognize the specific barcode sequences in the cell set were hybridized to the PCR products and then detected using a Luminex scanner which reports signal as a median fluorescent intensity (MFI).

[12] = FAT1 loss / CDK6-high CDK4/6i-resistant MCF7 cells, 24 h treatment
[13] = MCF7 cells with overexpression of CDK6

Cmax ([4]; male, C57BL/6, mouse, plasma, ip, single dose 25 mg/kg i.p.): 2600 nM
concentration at 24 h ([4]; male, C57BL/6, mouse, plasma, ip, single dose 25 mg/kg i.p., read-out: plasma concentration at 24h post dosing): ~100 nM
metabolic stability ([4]; single dose in mice, i.p. or p.o.): good metabolic stability
degradation of CDK6 [9, 13]: effectively degrade CDK4 and CDK6
degradation of CDK4 [10, 13]: effectively degrade CDK4 and CDK6
Compound: CC(=O)c1c(C)c2cnc(Nc3ccc(N4CCN(CCCCC(=O)N[C@H](C(=O)N5C[C@H](O)C[C@H]5C(=O)N[C@@H](C)c5ccc(-c6scnc6C)cc5)C(C)(C)C)CC4)cn3)nc2n(C2CCCC2)c1=O [BSJ-05-017, (2S,4R)-1-((S)-2-(5-(4-(6-((6-acetyl-8-cyclopentyl-5-methyl-7-oxo-7,8-dihydropyrido[2,3-d]pyrimidin-2-yl)amino)pyridin-3-yl)piperazin-1-yl)pentanamido)-3,3-dimethylbutanoyl)-4-hydroxy-N—((S)-1-(4-(4-methylthiazol-5-yl)phenyl)ethyl)pyrrolidine-2-carboxamide]
inhibition of phosphorylation of Rb (and downstream E2F1/cyclin A2) [1]: effective inhibition of the phosphorylation of Rb
inhibition of cell growth [2]: equal potency; also recorded: equipotent in suppressing proliferation
inhibition of cell growth [3]: equal potency; also recorded: equipotent in suppressing proliferation
colony formation [5]: more sensitive to BSJ-05-017 than to palbociclib
durable tumor inhibition (percent) [6]: ~47.4%
durable tumor inhibition (percent) [7]: −64.9%
tumor response [8]: sensitive
degradation of CDK6 [9, 12]: most significant degradation of both CDK4 and CDK6; also recorded: high potency in degrading CDK4 and CDK6
degradation of CDK4 [10, 12]: most significant degradation of both CDK4 and CDK6; also recorded: high potency in degrading CDK4 and CDK6
inhibition of cell growth across cell lines (AUC of cell viability) [11]: cells of other cancer types are also sensitive
